# How the values were obtained:
# [1] = tested on: Rattus norvegicus
# [2] = tested on: Canidae
# [3] = tested on: Gallus gallus; conditions: oral, diet
# [4] = subchronic, duration: 90 days, oral, diet, M/F, Sprague-Dawley, no effects
# [5] = subchronic, duration: 42 days, oral, gavage, M/F, body weight
# [6] = subchronic, duration: 13 weeks, oral, diet, M/F, no effects
# [7] = subchronic, duration: 90 days, oral
structure (smiles),measurement,setting,value
CC(=O)NCCS(=O)(=O)O.CC(=O)NCCS(=O)(=O)O.[Mg],NOAEL,"[1]; subchronic, duration: 13 weeks, oral, gavage, M/F, Crj:CD, no effects",1000 mg/kg-day
Cc1nc2cccc(OCC(C)(C)C(=O)NC(C)C)c2c(N)c1C(=O)O,NOAEL,"[1]; reproduction developmental, oral, gavage, F, Crj:CD, no effects",1000 mg/kg-day
same,NOAEL,"[1]; subchronic, duration: 13 weeks, oral, diet, M/F, Crj:CD, no effects",100 mg/kg-day
Cc1sc2nc(=O)[nH]c(N)c2c1C.Cl,NOAEL,"[1]; subchronic, duration: 13 weeks, oral, diet, M/F, Sprague-Dawley, no effects",60 mg/kg-day
Cc1cc(OC2OC(CO)C(O)C(O)C2O)ccc1C(=O)C(C)(C)NC(=O)c1sccc1C (stereo not given),NOAEL,"[2]; chronic, duration: 1 years, Dog Other, body weight",1.57 mg/kg-day
same,NOAEL,"[2]; subchronic, duration: 90 days, oral, Dog Other, body weight",5.34 mg/kg-day
COc1cc(S(=O)(=O)[O-])c(C)cc1N=Nc1c(O)ccc2cc(S(=O)(=O)[O-])ccc12.[Na+].[Na+],NOAEL,"[1]; chronic, oral, M/F, body weight",701 mg/kg-day
same,NOAEL,"[1]; developmental, M, development",701 mg/kg-day
same,NOAEL,"[1]; reproduction developmental, growth",695 mg/kg-day
same,NOAEL,"[1]; reproduction developmental, oral, M/F, growth",695 mg/kg-day
CC1OCCC12SC1CCOC1(C)S2 (stereo not given),NOAEL,"[1]; subchronic, duration: 90 days, oral, diet, M, hematological",25 mg/kg-day
C[n+]1cccc(C(=N)[O-])c1.Cl,NOAEL,"[1]; chronic, duration: 91 days, oral, gavage, M/F, clinical chemistry",250 mg/kg-day
NC(=O)Cc1cccc2ccccc12 [1-Naphthaleneacetamide],NOAEL,"[1]; developmental, development",15 mg/kg-day
same,NOAEL,"[1]; subchronic, duration: 90 days, oral, hematological",10 mg/kg-day
"C=CCSCC=C [1-Propene, 3,3'-thiobis-]",NOAEL,"[1]; chronic, duration: 14 weeks, oral, gavage, M/F, Wistar, no effects",250 mg/kg-day
"CSCSCSC [2,4,6-Trithiaheptane]",NOAEL,[1]; [4],0.2 mg/kg-day
"CC1(O)CSC(C)(O)CS1 (stereo not given) [2,5-Dimethyl-1,4-dithiane-2,5-diol]",NOAEL,[1]; [4],3.14 mg/kg-day
CC(=O)C1=NCCS1 [2-Acetyl-2-thiazoline],NOAEL,"[1]; subchronic, duration: 90 days",1.8 mg/kg-day
same,NOAEL,"[1]; subchronic, duration: 90 days, oral, diet, M/F, no effects",1.8 mg/kg-day
CCC(CC)C(=O)O [2-Ethylbutyric acid],NOAEL,"[1]; reproduction developmental, duration: 10 days, oral, gavage, F, Sprague-Dawley, no effects",200 mg/kg-day
same,NOAEL,"[1]; reproduction developmental, duration: 10 days, oral, gavage, F, no effects",200 mg/kg-day
CC(O)C(=O)NCCc1ccc(O)cc1 (stereo not given) [2-Hydroxy-N-[2-(4-hydroxyphenyl)ethyl]propanimidic acid],NOAEL,"[1]; subchronic, duration: 90 days, oral, M/F",8.4 mg/kg-day
COc1ccccc1C=O [2-Methoxybenzaldehyde],NOAEL,"[1]; subchronic, duration: 49 days, oral, gavage, histopathology: nonneoplastic",10 mg/kg-day
"O=C1OC(=O)C2C3C=CC(C3)C12 (stereo not given) [2-Norbornene-5,6-dicarboxylic anhydride]",NOAEL,"[1]; subchronic, duration: 90 days, oral, gavage, M/F, body weight",250 mg/kg-day
C=CCCN=C=S [3-Butenyl isothiocyanate],NOAEL,"[1]; chronic, duration: 721 days, oral, gavage, M/F, histopathology: neoplastic",12 mg/kg-day
CCOc1cc(C=O)ccc1O [3-Ethoxy-4-hydroxybenzaldehyde],NOAEL,"[1]; chronic, duration: 14 weeks",500 mg/kg-day
"C=CCc1cc(OC)c(O)c(OC)c1 [4-Allyl-2,6-dimethoxyphenol]",NOAEL,"[1]; subchronic, duration: 90 days, clinical chemistry",300 mg/kg-day
C=C(C)C1CC=C(CO)CC1 (stereo not given) [4-Isopropenylcyclohex-1-en-1-ylmethanol],LEL,"[1]; subchronic, duration: 90 days, oral, gavage, F, no effects",120 mg/kg-day
same,LEL,"[2]; subchronic, duration: 90 days, Dog Other, no effects",120 mg/kg-day
COc1ccc(C=O)cc1 [4-Methoxybenzaldehyde],NOAEL,[1]; [5],20 mg/kg-day
COc1ccc(COC(C)=O)cc1 [4-Methoxybenzyl acetate],NOAEL,[1]; [5],20 mg/kg-day
CCC(=O)CC(C)CC (stereo not given) [5-Methyl-3-heptanone],NOAEL,"[1]; subchronic, duration: 13 weeks, oral, gavage, M, Sprague-Dawley, behavior",82 mg/kg-day
same,NOAEL,"[1]; subchronic, duration: 13 weeks, oral, gavage, M, Sprague-Dawley, clinical signs",82 mg/kg-day
same,NOAEL,"[1]; subchronic, duration: 13 weeks, oral, gavage, M, behavior",82 mg/kg-day
same,NOAEL,"[1]; subchronic, duration: 13 weeks, oral, gavage, M, neurology",82 mg/kg-day
CC(=O)OC1(C)CCCC(C)(C)C12CCC(C)O2 (stereo not given) [6-Acetoxydihydrotheaspirane],NOAEL,"[1]; subchronic, duration: 90 days, oral, diet, M/F, Crj:CD, food efficiency",52 mg/kg-day
"CCCCCC1CC=CC(=O)O1 (stereo not given) [6-Pentyl-5,6-dihydro-2H-pyran-2-one]",NOAEL,"[1]; subchronic, duration: 90 days",12.1 mg/kg-day
CCC/C=C/C=O [(2E)-2-Hexenal],NOAEL,[1]; [6],257 mg/kg-day
"C/C=C/C=C/C=O [(2E,4E)-2,4-Hexadienal]",NOAEL,"[1]; chronic, duration: 14 weeks, oral, gavage, M/F, body weight",15 mg/kg-day
CC(C)(C)c1ccc(CC#N)cc1 [(4-tert-Butylphenyl)acetonitrile],NOAEL,"[1]; short-term, duration: 28 days",6.5 mg/kg-day
"C=CC(C)(O)C/C=C/C(=C)C (stereo not given) [(E)-3,7-Dimethylocta-1,5,7-trien-3-ol]",NOAEL,[1]; [4],44 mg/kg-day
C=CCSC(=O)CCCCC [Allyl thiohexanoate],NOAEL,[1]; [7],6.63 mg/kg-day
"CSc1ccccc1 [Benzene, (methylthio)-]",NOAEL,[1]; [7],0.43 mg/kg-day
Cc1occc1SSc1ccoc1C [Bis(2-methyl-3-furyl)disulfide],NOAEL,"[1]; subchronic, duration: 90 days, oral, diet, M/F, Wistar, no effects",0.45 mg/kg-day
same,NOAEL,"[1]; subchronic, duration: 90 days, oral, diet, Wistar, no effects",0.45 mg/kg-day
CC(C)(c1ccc(OCC2CO2)cc1)c1ccc(OCC2CO2)cc1 (stereo not given) [Bisphenol A diglycidyl ether],NOAEL,"[1]; chronic, duration: 2 years, oral, gavage, M/F, Fischer 344, organ weight",15 mg/kg-day
COc1ccc(O)c(C(C)(C)C)c1 [Butylated hydroxyanisole],NOAEL,"[1]; developmental, oral, Sprague-Dawley, development",100 mg/kg-day
"CCCCOC(=O)c1ccccc1C(=O)OCCCC [Dibutyl 1,2-benzenedicarboxylate]",LOAEL,"[1]; reproduction developmental, oral, F, histopathology: nonneoplastic",2 mg/kg-day
CC(C)SSSC(C)C [Diisopropyl trisulfide],NOEL,"[1]; subchronic, duration: 13 weeks, oral, gavage",4.8 mg/kg-day
CS(C)=O [Dimethyl sulfoxide],NOAEL,"[1]; repeat dose other, oral, gavage, F, no effects",1000 mg/kg-day
C[N+](C)(C)[C@@H](Cc1c[nH]c(=S)[nH]1)C(=O)[O-] [Ergothioneine],NOEL,"[1]; reproduction developmental, duration: 13 weeks, oral, diet, M/F, Sprague-Dawley, no effects",725 mg/kg-day
same,NOAEL,"[1]; short-term, duration: 28 days, oral, gavage, M/F, Sprague-Dawley, hematological",800 mg/kg-day
CCCCCCCCCCCC(=O)N[C@@H](CCCN=C(N)N)C(=O)OCC.Cl [Ethyl-N2-dodecanoyl-L-argininate hydrochloride],NOAEL,"[1]; subchronic, duration: 13 weeks, oral, M/F, Sprague-Dawley, clinical chemistry",47 mg/kg-day
CCN(Cc1cccc(S(=O)(=O)[O-])c1)c1ccc(C(=C2C=CC(=[N+](CC)Cc3cccc(S(=O)(=O)[O-])c3)C=C2)c2ccccc2S(=O)(=O)[O-])cc1.[Na+].[Na+] [FD&C Blue No. 1],NOAEL,"[1]; chronic, duration: 30 months, oral, diet, M/F, mortality",631 mg/kg-day
same,NOAEL,"[1]; chronic, other",631 mg/kg-day
NCC(=O)[O-].NCC(=O)[O-].[Fe+2] [Ferrous bisglycinate],LD50,"[1]; acute, oral, M/F, mortality",2800 mg/kg-day
same,NOAEL,"[1]; subchronic, duration: 13 weeks, oral, Sprague-Dawley, no effects",500 mg/kg-day
C=O [Formaldehyde],LEL,"[3]; short-term, duration: 28 days, no effects",990 mg/kg-day
same,NOAEL,"[1]; chronic, duration: 104 weeks, oral, drinking water, M/F, Wistar, histopathology: nonneoplastic",15 mg/kg-day
"CCOC(OCC)c1ccco1 [Furan, 2-(diethoxymethyl)-]",NOEL,"[1]; subchronic, duration: 90 days, oral, diet, M/F, Fischer 344, hematological",54 mg/kg-day
CC(C=O)c1ccccc1 (stereo not given) [Hydratropaldehyde],NOAEL,"[1]; chronic, duration: 15 weeks, oral, gavage, M/F, organ weight",50 mg/kg-day
NCCCC[C@H](N)C(=O)O.O=S(=O)(O)O [L-Lysine sulphate],LEL,"[1]; subchronic, duration: 90 days, oral, gavage, M/F, Sprague-Dawley, histopathology: neoplastic",1000 mg/kg-day
C=CC(C)(O)CCC=C(C)C (stereo not given) [Linalool],NOAEL,"[1]; short-term, duration: 28 days, oral, M/F, histopathology: nonneoplastic",117 mg/kg-day
"COC(=O)c1cc(Cl)ccc1Cl [Methyl 2,5-dichlorobenzoate]",NOAEL,"[1]; short-term, duration: 28 days, oral, clinical signs",100 mg/kg-day
CNc1ccccc1C(=O)OC [Methyl N-methylanthranilate],NOAEL,"[1]; subchronic, duration: 90 days, organ weight",20 mg/kg-day
COC(=O)c1ccccc1O [Methyl salicylate],NOAEL,"[1]; chronic, duration: 2 years, oral, growth",50 mg/kg-day
same,NOAEL,"[2]; chronic, duration: 2 years, Dog Other",50 mg/kg-day
COC(=O)CSCc1ccco1 [Methyl {[(furan-2-yl)methyl]sulfanyl}acetate],NOAEL,"[1]; subchronic, duration: 90 days, oral, diet, M/F, clinical chemistry",5.78 mg/kg-day
C=CC(=C)CCC=C(C)C [Myrcene],NOAEL,[1]; [4],44 mg/kg-day
C[C@@H]1O[C@@H](O[C@H]2[C@H](Oc3cc(O)c4c(c3)O[C@H](c3ccc(O)cc3)CC4=O)O[C@H](CO)[C@@H](O)[C@@H]2O)[C@H](O)[C@H](O)[C@H]1O [Naringin],NOAEL,"[1]; chronic, duration: 400 days, oral, diet, food consumption",1250 mg/kg-day
O=C(O)c1cc(=O)[nH]c(=O)[nH]1 [Orotic acid],NOAEL,"[1]; chronic, duration: 20 weeks, oral, diet, histopathology: neoplastic",50 mg/kg-day
O=C(/C=C/C=C/c1ccc2c(c1)OCO2)N1CCCCC1 [Piperine],NOAEL,"[1]; subchronic, duration: 90 days, oral, diet, M/F, Crj:CD, clinical chemistry",5 mg/kg-day
O=Cc1ccc2c(c1)OCO2 [Piperonal],NOAEL,"[1]; chronic, duration: 2 years",250 mg/kg-day
SCCc1cnccn1 [Pyrazineethanethiol],NOAEL,[1]; [6],1.63 mg/kg-day
CSc1cnccn1 [Pyrazinyl methyl sulfide],NOAEL,[1]; [6],1.63 mg/kg-day
CCSC(C)=O [S-Ethyl thiolacetate],NOEL,"[1]; subchronic, duration: 13 weeks, oral, diet",6.5 mg/kg-day
"CN(C)CC(=O)O.[H-].[Na+] [Sodium N,N-dimethylglycinate]",LEL,"[3]; subchronic, duration: 39 days, M/F, food consumption",10000 mg/kg-day
O=C1O[C@H]([C@H](O)CO)C([O-])=C1O.[Na+] [Sodium erythorbate],NOAEL,"[1]; chronic, duration: 2 years, oral, drinking water, M/F, Fischer 344, body weight",650 mg/kg-day
[Na+].[Na+].[O-]B1OB2OB([O-])OB(O1)O2 [Sodium tetraborate (Na2B4O7)],NOAEL,"[1]; developmental, duration: 20 days, F, Sprague-Dawley, development",55 mg/kg-day
OC[C@H]1O[C@@H]2O[C@H]3[C@H](O)[C@@H](O)[C@@H](O[C@H]4[C@H](O)[C@@H](O)[C@@H](O[C@H]5[C@H](O)[C@@H](O)[C@@H](O[C@H]6[C@H](O)[C@@H](O)[C@@H](O[C@H]7[C@H](O)[C@@H](O)[C@@H](O[C@H]1[C@H](O)[C@H]2O)O[C@@H]7CO)O[C@@H]6CO)O[C@@H]5CO)O[C@@H]4CO)O[C@@H]3CO [alpha-Cyclodextrin],NOAEL,"[2]; subchronic, duration: 90 days, oral, diet, M/F, Beagle, no effects",10000 mg/kg-day
